According to PMC3163375, “Design, Synthesis and Biological Evaluation of New 5,5-Diarylhydantoin Derivatives as Selective Cyclooxygenase-2 Inhibitors” (Scientia Pharmaceutica, 2011):

Key:
[1] = molecular target: T1, ovine COX-1 (Ovis aries, UniProt P05979); experiment: In vitro COX-1 enzyme inhibition, chemiluminescent enzyme assay kit (Cayman); format: biochemical; details: ovine COX-1/COX-2 assay kit; means of two determinations, deviation < 10% of the mean
T1 construct: purchased Cayman Chemical, Ann Arbor, MI, USA
T1 sequence (P05979 25-600): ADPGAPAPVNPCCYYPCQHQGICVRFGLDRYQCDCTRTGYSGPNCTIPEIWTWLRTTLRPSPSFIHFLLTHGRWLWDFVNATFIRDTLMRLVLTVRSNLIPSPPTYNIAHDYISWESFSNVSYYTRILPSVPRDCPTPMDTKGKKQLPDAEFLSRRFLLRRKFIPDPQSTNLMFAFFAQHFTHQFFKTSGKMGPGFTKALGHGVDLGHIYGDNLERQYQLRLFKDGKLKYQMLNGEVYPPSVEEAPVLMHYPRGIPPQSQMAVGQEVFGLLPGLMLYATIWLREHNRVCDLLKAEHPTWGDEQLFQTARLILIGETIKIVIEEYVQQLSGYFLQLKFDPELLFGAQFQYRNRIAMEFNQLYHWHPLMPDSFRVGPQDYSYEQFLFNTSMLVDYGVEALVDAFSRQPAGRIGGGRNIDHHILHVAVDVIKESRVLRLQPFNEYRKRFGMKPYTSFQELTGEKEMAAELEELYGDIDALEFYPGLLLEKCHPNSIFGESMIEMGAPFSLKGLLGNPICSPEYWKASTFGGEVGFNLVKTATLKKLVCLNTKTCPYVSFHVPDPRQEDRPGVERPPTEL
Procedure: (§1) All of the prepared 5,5-diarylhydantoin derivatives having different substituents at the N-3 hydantoin ring were evaluated to investigate the effect of different alkyls on COX-2 selectivity and potency. The ability of the 5,5-diarylhydantoin 4–8 to inhibit the COX-1 and COX-2 isozymes was determined using chemiluminescent enzyme assays (see enzyme inhibition data in Table 1.) according to our previously reported method.
(§2) The ability of the test compounds listed in Table 1 to inhibit ovine COX-1 and COX-2 (IC50 value, μM) was determined using chemiluminescent enzyme assays kit (Cayman Chemical, Ann Arbor, MI, USA) according to our previously reported method.

[2] = molecular target: T2, ovine COX-2 (Ovis aries, UniProt P79208); experiment: In vitro COX-2 enzyme inhibition, chemiluminescent enzyme assay kit (Cayman); format: biochemical; details: for Selectivity index (SI): In vitro COX-2 selectivity index (COX-1 IC50/COX-2 IC50); for IC50: ovine COX-1/COX-2 assay kit, means of two determinations, deviation < 10% of the mean
T2 construct: purchased Cayman Chemical, Ann Arbor, MI, USA
T2 sequence (P79208 17-603): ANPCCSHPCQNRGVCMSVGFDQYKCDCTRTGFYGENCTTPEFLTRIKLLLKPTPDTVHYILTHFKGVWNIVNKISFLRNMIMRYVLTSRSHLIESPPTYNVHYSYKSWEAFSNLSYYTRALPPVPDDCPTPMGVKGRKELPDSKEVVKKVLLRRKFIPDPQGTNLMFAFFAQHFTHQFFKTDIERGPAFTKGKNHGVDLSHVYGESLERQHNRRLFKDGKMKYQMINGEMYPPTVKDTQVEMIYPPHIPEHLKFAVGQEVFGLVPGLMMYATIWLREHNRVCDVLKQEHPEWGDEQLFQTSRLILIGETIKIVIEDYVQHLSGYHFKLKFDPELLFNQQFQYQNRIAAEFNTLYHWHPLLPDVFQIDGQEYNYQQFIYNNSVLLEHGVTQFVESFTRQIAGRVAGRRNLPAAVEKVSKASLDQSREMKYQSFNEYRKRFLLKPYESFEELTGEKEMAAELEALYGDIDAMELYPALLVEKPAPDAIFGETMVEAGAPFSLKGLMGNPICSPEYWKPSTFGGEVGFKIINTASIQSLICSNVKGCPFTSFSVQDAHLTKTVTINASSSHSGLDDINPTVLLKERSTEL
Procedure: as §1, §2

| IC50 [1] [nM] | Selectivity index (SI) [2] | IC50 [2] [nM] | melting point [°C] | SMILES |
| --- | --- | --- | --- | --- |
| > 100000 | >1298 | 77 |  | CS(=O)(=O)c1ccc(C2(c3ccccc3)NC(=O)NC2=O)cc1 (stereo not shown) [Compound 4, 5-[4-(Methylsulfonyl)phenyl]-5-phenylimidazolidine-2,4-dione] |
| 12000 | 70.2 | 171 | 82 to 83 | CCCN1C(=O)NC(c2ccccc2)(c2ccc(S(C)(=O)=O)cc2)C1=O (stereo not shown) [Compound 7, 5-[4-(Methylsulfonyl)phenyl]-5-phenyl-3-propylimidazolidine-2,4-dione] |
| 20200 | 206.2 | 98 | 91 to 92 | CCN1C(=O)NC(c2ccccc2)(c2ccc(S(C)(=O)=O)cc2)C1=O (stereo not shown) [Compound 6, 3-Ethyl-5-[4-(methylsulfonyl)phenyl]-5-phenylimidazolidine-2,4-dione] |
| 15000 | 151.1 | 99 | 129 to 130 | C=CCN1C(=O)NC(c2ccccc2)(c2ccc(S(C)(=O)=O)cc2)C1=O (stereo not shown) [Compound 8, 5-[4-(Methylsulfonyl)phenyl]-5-phenyl-3-(prop-2-en-1-yl)imidazolidine-2,4-dione] |
| 22700 | 280.1 | 81 | 212 to 214 | CN1C(=O)NC(c2ccccc2)(c2ccc(S(C)(=O)=O)cc2)C1=O (stereo not shown) [Compound 5, 3-Methyl-5-[4-(methylsulfonyl)phenyl]-5-phenylimidazolidine-2,4-dione] |
